Assay [1] concerns Rattus norvegicus. As to the kind of experiment: Hyperactivity by regression analysis, through intraperitoneal route of administration. It is filed as functional. Conditions: ip.
Assay [2] relates to Rattus norvegicus. As to the kind of experiment: Stereotypies was scored by regression analysis, through intraperitoneal route of administration. Type of assay: functional. Particulars: ip.
The next assay deals with D(2) dopamine receptor (Rattus norvegicus, UniProt P61169). As to the kind of experiment: The affinity for the Dopamine receptor D2 was assessed by the inhibition of [3H]-spiperone binding in rat striatal membranes in vitro. It is filed as cell membranes, Membrane.

Consider 14 compounds from ChEMBL document CHEMBL1124888 (J Med Chem, 1990).

As usually defined, the ED50 is the dose that gives a 50% effect, or the effect in half of the subjects. As a reminder, the IC50 is the point on the concentration scale where inhibition reaches its midpoint. A lower IC50 goes with greater potency in that assay.

Chain of D(2) dopamine receptor (P61169 whole entry): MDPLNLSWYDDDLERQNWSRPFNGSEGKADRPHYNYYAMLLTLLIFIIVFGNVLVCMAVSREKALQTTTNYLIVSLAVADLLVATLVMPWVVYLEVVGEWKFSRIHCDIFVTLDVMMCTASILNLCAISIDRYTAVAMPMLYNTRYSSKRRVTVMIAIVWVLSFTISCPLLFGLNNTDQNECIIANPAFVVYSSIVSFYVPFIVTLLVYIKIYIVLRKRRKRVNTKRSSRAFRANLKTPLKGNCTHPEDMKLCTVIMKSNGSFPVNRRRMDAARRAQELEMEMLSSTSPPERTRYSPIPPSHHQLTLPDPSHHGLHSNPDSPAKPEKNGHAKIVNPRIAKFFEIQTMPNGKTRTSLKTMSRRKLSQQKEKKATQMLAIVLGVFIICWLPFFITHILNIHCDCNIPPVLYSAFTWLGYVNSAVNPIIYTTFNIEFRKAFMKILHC

In the case of `CCN1CCC[C@@H]1CNC(=O)c1cc(Br)cc(OC)c1OC`, the ED50 in the assay with Rattus norvegicus [1] and in the assay with Rattus norvegicus [2] was above 20 µmol/kg throughout. Moreover, at D(2) dopamine receptor, the IC50 is 0.145 µM.
Turning to `CCN1CCC[C@H]1CNC(=O)c1c(OC)ccc(Br)c1O`, the ED50 with Rattus norvegicus [1] was found to be 0.054 µmol/kg; with Rattus norvegicus [2], 0.32 µmol/kg.
As for `CCN1CCC[C@H]1CNC(=O)c1cc(Br)cc(OC)c1OC`, the ED50 is 0.002 µmol/kg in the assay on Rattus norvegicus [1] and 0.14 µmol/kg with Rattus norvegicus [2]. The same compound showed an IC50 at D(2) dopamine receptor of 0.0012 µM.
Consider `CCN1CCC[C@H]1CNC(=O)c1cc(Br)cc2c1OCC2`, for which the ED50 came to 2 µmol/kg in the assay with Rattus norvegicus [1] and 4.7 µmol/kg in the assay with Rattus norvegicus [2].
With `CCN1CCCC1CNC(=O)c1cc(Br)cc(OC)c1O` (stereo unspecified), on D(2) dopamine receptor, the IC50 turned out to be 8.21 µM.
Consider `CCN1CCC[C@H]1CNC(=O)c1cc(Br)cc2c1OCCO2`, for which the ED50 is 3.8 µmol/kg with Rattus norvegicus [1] and 12.8 µmol/kg with Rattus norvegicus [2]. The IC50 at D(2) dopamine receptor came out at 0.046 µM.
`CCN1CCCC1CNC(=O)c1cc(Br)c(OC)cc1OC` (stereo unspecified): the ED50 in the assay with Rattus norvegicus [1] was determined as 3.2 µmol/kg; in the assay with Rattus norvegicus [2], 10.7 µmol/kg. This compound also came in with an IC50 at D(2) dopamine receptor of 0.044 µM.
On the same counts, the results for `CCN1CCCC1CNC(=O)c1cc(Br)ccc1OC` (stereo unspecified) are 3 µmol/kg, 6.7 µmol/kg and 0.046 µM.
With `COc1cc(Br)cc(C(=O)NC2CCN(Cc3ccccc3)CC2)c1OC`, the ED50 was 0.28 µmol/kg in the assay on Rattus norvegicus [1] and 0.24 µmol/kg in the assay with Rattus norvegicus [2]. At D(2) dopamine receptor, this compound gave an IC50 of 0.005 µM.
For `COc1cccc(C(=O)NC2CC3CCC(C2)N3Cc2ccccc2)c1OC` (stereo unspecified), in that order: 0.016 µmol/kg, 0.043 µmol/kg and 0.0017 µM.
For `CCN1CCCC1CNC(=O)c1cccc(OC)c1OC` (stereo unspecified), in that order: around 10 µmol/kg, around 10 µmol/kg and 0.052 µM.
On the same counts, the results for `CCN1CCCC1CNC(=O)c1cc(Br)cc(O)c1OC` (stereo unspecified) are 1.2 µmol/kg, 2.1 µmol/kg and 0.01 µM.
Take `CCN1CCC[C@H]1CNC(=O)c1c(O)c(Br)cc(OC)c1OC`: the ED50 with Rattus norvegicus [1] worked out at 0.009 µmol/kg; in the assay with Rattus norvegicus [2], 0.049 µmol/kg.
Consider `CCN1CCC[C@H]1CNC(=O)c1c(O)c(Cl)cc(Cl)c1OC` [RACLOPRIDE], for which the figures for the ED50 with Rattus norvegicus [1] and with Rattus norvegicus [2] were 0.13 µmol/kg and 1.8 µmol/kg, respectively.
